{"source": "paper PMC3608555", "about": "“The HopQ1 Effector’s Nucleoside Hydrolase-Like Domain Is Required for Bacterial Virulence in Arabidopsis and Tomato, but Not Host Recognition in Tobacco” (PLoS ONE, 2013)", "target": "RihB (MBP:RihB) (Escherichia coli, UniProt P33022)", "sequence (P33022 whole entry)": "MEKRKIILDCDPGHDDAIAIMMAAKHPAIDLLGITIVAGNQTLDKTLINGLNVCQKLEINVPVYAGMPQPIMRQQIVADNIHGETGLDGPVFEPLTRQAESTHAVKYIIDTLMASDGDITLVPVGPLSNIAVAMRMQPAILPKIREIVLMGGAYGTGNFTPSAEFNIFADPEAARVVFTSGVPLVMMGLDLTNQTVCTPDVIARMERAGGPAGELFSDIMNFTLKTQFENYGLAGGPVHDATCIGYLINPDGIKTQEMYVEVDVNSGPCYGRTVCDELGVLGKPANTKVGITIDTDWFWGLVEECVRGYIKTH", "details": "high activity, data not shown", "data": [{"compound": "O=c1ccn([C@@H]2O[C@H](CO)[C@@H](O)[C@H]2O)c(=O)[nH]1", "note": "[uridine]", "values": [{"measurement": "nucleoside hydrolase activity assay", "result": "MBP:RihB showed high enzymatic activity for cytidine and uridine"}]}]}
